# Patent US20080138280A1, “Composition and Methods For Inhibiting Cell Survival” (The Cleveland Clinic Foundation, priority 2003, published 2008)
# Key:
# NIH-OVCAR-3 cells = experiment: Colony formation after gamma irradiation; type: cell-based; settings: NO-Cbl 50 μM 16 hours, then 1, 2 and 4 Gy; colonies after 23 days
# Description: FIG. 7 illustrates that NO-Cbl sensitizes NIH-OVCAR-3 cells to gamma irradiation. NIH-OVCAR-3 cells were pre-treated with NO-Cbl (50 μM) for 16 hours. Cells were then washed and irradiated with 1, 2, and 4 Gy from a Cesium source. Cells were plated in 100 mm dishes and allowed to form colonies. Plates were examined after 23 days and colony number was determined by automated counting of stained colonies. Data is expressed as percent control colony forming units (CFU).
# A375 melanoma xenografts = experiment: Growth of subcutaneous A375 xenografts in nude mice; type: in vivo
# Text: In vivo experiments. Please see FIG. 2. The Institutional Animal Care and Use Committee at the Cleveland Clinic Foundation approved all procedures for animal experimentation. Five week-old NCR male athymic nude homozygous (nu/nu) mice (Taconic, Germantown, N.Y.) were inoculated with A375 tumors. Each experimental group contained 4 mice, each mouse bearing two tumors, on opposite flanks. There were four experimental groups (untreated, single agents, and the combination). Cultured tumor cells (4×10^6) were inoculated into flanks in the mid-axillary line. NO-Cbl was given twice daily (50 mg/kg s.c.) and recombinant trimeric Apo2L/TRAIL (50 mg/kg s.c.) was administered every other day, starting on day 2. Tumor volume was measured three times a week using the formula for a prolate spheroid: (4/3) πab^2 where 2a=major axis, 2b=minor axis. Formalin-fixed sections were processed by the Cleveland Clinic Histology Core. Sections were stained with hematoxylin and eosin and evaluated for pathologic changes in a blinded fashion.
# Anti-tumor effects of NO-Cbl, Apo2L/TRAIL, and the combination in vivo. To test drug activity in vivo, subcutaneous A375 xenografts were inoculated in nude mice. FIG. 2. illustrates the effect of NO-Cbl, Apo2L/TRAIL and the combination on the growth of A375 melanoma xenografts. NCR male athymic nude (nulnu) mice (n=4 per group) were injected subcutaneously with 4×10^6 A375 cells. Drug treatments began on day two (2) after injection of tumor cells. NO-Cbl was administered twice daily for the duration of the study. Apo2L/TRAIL was administered every other day. The control mice received phosphate buffered saline. The tumor volume was measured three times per week. Data points represent the mean tumor volume (in cubic mm)±SEM. Daily drug treatments began on day 2 following implantation, at which time tumors were both visible and palpable. Untreated control tumors grew unimpeded. After 25 days, the tumors from mice treated with NO-Cbl were 67.4% smaller than the control tumors (p≦0.0002) and tumors from mice treated with Apo2L/TRAIL were 89.4% smaller than the control tumors (p≦0.00001). The tumors from mice treated with the combination of NO-Cbl and Apo2L/TRAIL were 95.7% smaller than the control tumors (p≦0.000005).
# [1] = tested on: Apo2L/TRAIL, DR4 and DR5 mRNAs, caspase-8 enzymatic activity; experiment: Expression of Apo2L/TRAIL pathway components after NO-Cbl; type: cell-based; settings: treatment with NO-Cbl
# Text: This endogenous production further sensitized cells to administration of exogenous Apo2L/TRAIL. […] The anti-tumor effects of IFN-β and NO-Cbl are synergistic in vitro and in vivo. Treatment with NO-Cbl increased the expression of Apo2L/TRAIL, DR4 and DR5 mRNAs, and caspase-8 enzymatic activity, indicating activation of the extrinsic apoptotic pathway.
# [2] = tested on: NF-κB-luciferase reporter in A375 cells; experiment: Dual luciferase NF-κB reporter assay; type: cell-based, human
# Description: Dual Luciferase NF-κB Reporter Assay. Please see FIG. 6. The NP-κB-luciferase (NF-κB-luc) reporter plasmid, containing a 2×NF-κB response element fused to the luciferase, has been previously characterized. Renilla luciferase (pRL-TK, Promega, Madison, Wis.) vector was used to normalize for transfection efficiency. A375 cells were transfected with 20 μg NF-κB-luc and 10 μg PRL-TK using Lipofectamine plus (Gibco BRL/Life Technologies, Invitrogen Carlsbad, Calif.). After transfection cells were allowed to recover overnight and were plated in 6 well plates. […] Cells were then harvested in 1× passive lysis buffer and luciferase activity was measured according to the manufacturer's protocol (Promega, Madison, Wis.) using a Wallac 1420 multilabel counter (Perkin Elmer, Gaithersburg, Md.). The fold induction of NF-κB-luciferase for each treatment was based on untreated values normalized to the fold induction of pRL-TK reporter values. The assays were performed in triplicate.
# Transient transfection assays were performed to assess NF-κB transcriptional activity. A375 cells were co-transfected with a NF-κB-luciferase reporter (NF-κB-luc) and Renilla luciferase (to assess transfection efficiency). Cells were pre-treated with NO-Cbl (100 μM) for 16 h followed by treatment with Apo2L/TRAIL (100 ng/ml) or TNF-α (10 ng/ml) for 4 hours.
# IκB kinase (IKK) = IκB kinase (IKK) activity assay with GST-IκBα-(1-54) and [γ32P]ATP; type: cell-based, human; settings: A375 pretreated with NO-Cbl
# Description: FIG. 8 illustrates the assessment of IκB kinase (IKK) activity using recombinant GST-IκBα-(1-54) and [γ^32P]ATP as substrates. The phosphorylated GST fusion protein was detected by autoradiography. IKK activity was determined in A375 cells pretreated with NO-Cbl followed by Apo2L/TRAIL or TNF-α stimulation for 30 minutes and 15 minutes, respectively. […] Anti-β-actin antibody served as the irrelevant antibody with no phosphorylation of GST-IκBα-(1-54) observed.
# [3] = tested on: human hematological and solid tumor cell lines; settings: cited from earlier work
substance,measurement,setting,value
nitrosylcobalamin [NO-Cbl],sensitization to gamma irradiation (colony forming units),NIH-OVCAR-3 cells,sensitizes
same,tumor regression,"A375 melanoma xenografts; A375 xenografts, nude mice",Tumor regression was observed
same,tumors smaller than the control tumors,"A375 melanoma xenografts; after 25 days, NO-Cbl 50 mg/kg s.c. twice daily, Apo2L/TRAIL 50 mg/kg s.c. every other day, from day 2",67.4%
same,"expression of Apo2L/TRAIL, DR4 and DR5 mRNAs, and caspase-8 enzymatic activity",[1],increased
same,inhibition of NF-κB activity in response to Apo2L/TRAIL,[2]; NO-Cbl 100 μM 16 h followed by Apo2L/TRAIL 100 ng/ml 4 hours,34%
same,inhibition of NF-κB activity in response to TNF-α,[2]; NO-Cbl 100 μM 16 h followed by TNF-α 10 ng/ml 4 hours,51%
same,IKK activity stimulated with Apo2L/TRAIL,IκB kinase (IKK); Apo2L/TRAIL 30 minutes,inhibited
same,IKK activity stimulated with TNF-α,IκB kinase (IKK); TNF-α 15 minutes,inhibited
same,ID50 lower in tumor cell lines compared to benign cells (fibroblasts and endothelial cells),[3],5-100 fold
